Measured values from paper PMC5471521, “Novel selective β1-adrenoceptor antagonists for concomitant cardiovascular and respiratory disease” (The FASEB Journal, 2017).

Columns and labels:
[1] = Protein binding by ultracentrifugation, human liver microsomes; assay type: in vitro ADME; conditions: pH 7.4, 0.4 mg/ml protein, read-out: fu human liver microsomes
Method: Protein binding of 1 µM NDD-713.HCl and -825.HCl in human and rat plasma, as well as human liver microsomes, was assessed by using the ultracentrifugation technique. Frozen human plasma (Australian Red Cross Blood Service, Melbourne, VIC, Australia) and rat plasma (male Sprague-Dawley rats; Charles River, Margate, Kent, United Kingdom) were thawed at 37°C. Human liver microsomes (XenoTech) were suspended in 0.1 M phosphate buffer (pH 7.4) at protein concentrations of 0.4 mg/ml. Samples were collected immediately as stability reference controls. Spiked plasma samples (but not microsome samples) were incubated at 37°C for 1 h. […] NDD-713.HCl and -825.HCl concentrations of noncentrifuged matrix and protein-free supernatant were determined by UPLC-MS relative to calibration standards prepared in the respective matrices. Total concentration (Ctotal) was the average measured concentration in […] samples maintained at 37°C, and unbound concentration (Cunbound) was the average measured concentration in protein-free supernatants from centrifuged samples (n = 3). The compound unbound fraction (fu) was calculated: fu = Cunbound/Ctotal. Compound degradation was assessed by comparing concentrations in noncentrifuged plasma samples that were incubated at 37°C with concentrations measured in the t = 0 noncentrifuged samples. […]

hERG potassium channel = hERG potassium channel (Homo sapiens, UniProt Q12809); test: hERG 3H-astemizole radioligand binding; conditions: 10 µM; concentrations >3000-fold β1-AR affinity
Chain of hERG potassium channel (Q12809 whole entry): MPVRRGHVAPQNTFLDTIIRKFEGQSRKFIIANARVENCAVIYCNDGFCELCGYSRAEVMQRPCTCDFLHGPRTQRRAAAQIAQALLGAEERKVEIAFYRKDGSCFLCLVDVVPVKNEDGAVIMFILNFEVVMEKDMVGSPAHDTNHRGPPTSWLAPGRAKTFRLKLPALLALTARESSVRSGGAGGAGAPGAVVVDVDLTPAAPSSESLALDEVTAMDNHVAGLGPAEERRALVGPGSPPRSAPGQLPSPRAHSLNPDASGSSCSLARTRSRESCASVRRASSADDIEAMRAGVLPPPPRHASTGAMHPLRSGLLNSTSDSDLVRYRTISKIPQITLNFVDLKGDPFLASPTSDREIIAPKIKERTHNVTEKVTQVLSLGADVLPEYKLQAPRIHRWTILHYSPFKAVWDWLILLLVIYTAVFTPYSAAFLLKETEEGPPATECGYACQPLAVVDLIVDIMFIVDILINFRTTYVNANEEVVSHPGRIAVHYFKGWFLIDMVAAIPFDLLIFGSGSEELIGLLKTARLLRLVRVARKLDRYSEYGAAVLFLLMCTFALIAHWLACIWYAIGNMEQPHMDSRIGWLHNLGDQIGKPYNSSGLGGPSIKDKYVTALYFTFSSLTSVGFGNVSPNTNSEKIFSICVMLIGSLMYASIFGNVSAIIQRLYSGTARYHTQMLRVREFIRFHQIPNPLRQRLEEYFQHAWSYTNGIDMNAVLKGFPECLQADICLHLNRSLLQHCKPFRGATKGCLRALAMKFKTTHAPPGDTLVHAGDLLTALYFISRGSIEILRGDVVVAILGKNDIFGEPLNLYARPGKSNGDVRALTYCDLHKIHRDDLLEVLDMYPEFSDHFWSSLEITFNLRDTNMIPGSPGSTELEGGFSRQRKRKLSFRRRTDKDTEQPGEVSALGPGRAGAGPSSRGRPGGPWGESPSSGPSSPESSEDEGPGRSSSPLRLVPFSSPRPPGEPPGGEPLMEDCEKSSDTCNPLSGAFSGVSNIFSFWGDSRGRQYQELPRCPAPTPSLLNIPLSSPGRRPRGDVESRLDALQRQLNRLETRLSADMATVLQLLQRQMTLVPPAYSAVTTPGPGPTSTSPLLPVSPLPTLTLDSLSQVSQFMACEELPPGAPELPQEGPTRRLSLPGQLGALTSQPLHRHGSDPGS

CYP2A6 = biological target: T1, CYP2A6 (Homo sapiens, UniProt P11509); test: P450 in vitro clearance, recombinant Supersomes; assay type: in vitro ADME; conditions: 2 μM, hydrochloride salts used
T1 construct: purchased BD Biosciences
T1 sequence (P11509 whole entry): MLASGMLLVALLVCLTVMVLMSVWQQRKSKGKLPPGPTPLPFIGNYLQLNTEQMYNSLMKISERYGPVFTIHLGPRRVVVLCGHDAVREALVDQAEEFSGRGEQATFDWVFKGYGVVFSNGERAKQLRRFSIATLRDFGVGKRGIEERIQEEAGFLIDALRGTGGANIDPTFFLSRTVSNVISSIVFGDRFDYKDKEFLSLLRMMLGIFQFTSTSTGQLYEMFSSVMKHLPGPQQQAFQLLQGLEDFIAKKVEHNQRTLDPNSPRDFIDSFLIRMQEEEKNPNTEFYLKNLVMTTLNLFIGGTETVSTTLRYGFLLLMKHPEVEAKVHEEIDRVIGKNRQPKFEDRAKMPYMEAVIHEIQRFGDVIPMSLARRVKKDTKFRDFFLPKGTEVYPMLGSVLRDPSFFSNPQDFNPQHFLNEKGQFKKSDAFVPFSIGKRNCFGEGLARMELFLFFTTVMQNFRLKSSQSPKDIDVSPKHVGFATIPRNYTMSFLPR
Method: (§1) NDD-713.HCl and -825.HCl (2 μM) and cytochrome P450 (P450) reference substrates (see Supplemental Data for full details) were incubated (37°C) with selected recombinant human P450 isoforms (CYP1A2, CYP2A6, CYP2B6, CYP2C8, CYP2C9, CYP2C19, CYP2D6 CYP2E1, and CYP3A4) in heterologously expressed P450 Supersomes (BD Biosciences) that were suspended in […] Tris-HCl buffer (pH 7.4; for CYP2C9) or 100 mM phosphate buffer (pH 7.4; for the other isoforms) at final P450 concentrations of 85 pmol/ml. Reactions were initiated by additions of an NADPH-regenerating system and quenched at time points over 60 min (reference probes) or 120 min (test compounds) by acetonitrile. Quenched samples were centrifuged and supernatants were collected. NDD-713, -825, and probe metabolites were determined by UPLC-MS relative to calibration standards prepared in quenched matrix, and %substrate that remained was calculated relative to the initial sample concentration. The %substrate that remained vs. time was fitted to exponential decay functions to determine the pseudo first-order rate constant (k/min) for substrate depletion. These were normalized to P450 concentrations (pmol/ml) to obtain in vitro CLint values: CLint, in vitro (μl/min/pmol P450) = [k (min^−1)/P450 concentration […]] × 1000. Studies were carried out by CDCO.

dopamine transporter = dopamine transporter (Homo sapiens, UniProt Q01959); test: Cerep radioligand-binding assay
Chain of dopamine transporter (Q01959 whole entry): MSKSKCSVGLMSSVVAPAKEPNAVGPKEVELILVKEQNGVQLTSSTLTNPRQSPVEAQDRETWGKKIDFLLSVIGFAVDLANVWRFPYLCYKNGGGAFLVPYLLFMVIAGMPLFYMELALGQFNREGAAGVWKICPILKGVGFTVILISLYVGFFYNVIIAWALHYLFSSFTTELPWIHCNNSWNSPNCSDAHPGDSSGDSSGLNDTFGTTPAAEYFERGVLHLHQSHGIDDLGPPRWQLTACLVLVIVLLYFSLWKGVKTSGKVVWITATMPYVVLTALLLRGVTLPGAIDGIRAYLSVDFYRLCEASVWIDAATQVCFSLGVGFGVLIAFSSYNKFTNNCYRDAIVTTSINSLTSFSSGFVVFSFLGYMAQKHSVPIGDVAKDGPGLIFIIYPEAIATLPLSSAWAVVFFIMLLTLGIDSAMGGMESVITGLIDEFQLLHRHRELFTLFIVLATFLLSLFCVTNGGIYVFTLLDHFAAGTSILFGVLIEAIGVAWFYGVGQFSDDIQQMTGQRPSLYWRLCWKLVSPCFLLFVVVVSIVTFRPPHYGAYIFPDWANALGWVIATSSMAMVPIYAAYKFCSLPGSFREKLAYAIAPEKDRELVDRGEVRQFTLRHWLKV
Method: (§2) […]; Ki (inhibition constant) was calculated by using the Cheng-Prusoff equation from the mean of duplicate determinations in cell-based receptor radioligand-binding assays. Cerep in vitro pharmacology profiling service was used (see the Supplemental Data for a list of the assays used).

[2] = biological target: noradrenaline transporter (Homo sapiens, UniProt P23975); test: Cerep radioligand-binding assay
Chain of noradrenaline transporter (P23975 whole entry): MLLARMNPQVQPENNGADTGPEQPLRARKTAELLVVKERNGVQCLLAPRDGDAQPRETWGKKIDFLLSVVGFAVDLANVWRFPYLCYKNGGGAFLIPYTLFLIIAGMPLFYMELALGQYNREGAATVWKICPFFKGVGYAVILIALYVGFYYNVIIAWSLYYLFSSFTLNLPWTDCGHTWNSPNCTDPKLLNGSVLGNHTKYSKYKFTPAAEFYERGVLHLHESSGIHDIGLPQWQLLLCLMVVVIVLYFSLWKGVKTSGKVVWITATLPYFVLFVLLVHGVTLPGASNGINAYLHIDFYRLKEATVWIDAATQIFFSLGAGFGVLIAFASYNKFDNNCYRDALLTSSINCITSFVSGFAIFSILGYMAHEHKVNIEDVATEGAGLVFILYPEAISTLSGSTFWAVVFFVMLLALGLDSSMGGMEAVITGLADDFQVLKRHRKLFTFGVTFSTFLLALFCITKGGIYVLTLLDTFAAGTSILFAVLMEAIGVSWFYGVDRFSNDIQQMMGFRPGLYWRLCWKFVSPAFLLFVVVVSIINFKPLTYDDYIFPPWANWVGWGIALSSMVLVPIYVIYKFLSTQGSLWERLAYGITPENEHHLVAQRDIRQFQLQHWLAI
Method: as §2

5-HT2B = 5-HT2B (Homo sapiens, UniProt P41595); test: Cerep receptor radioligand-binding assay; conditions: concentration-response, Cheng-Prusoff
Chain of 5-HT2B (P41595 whole entry): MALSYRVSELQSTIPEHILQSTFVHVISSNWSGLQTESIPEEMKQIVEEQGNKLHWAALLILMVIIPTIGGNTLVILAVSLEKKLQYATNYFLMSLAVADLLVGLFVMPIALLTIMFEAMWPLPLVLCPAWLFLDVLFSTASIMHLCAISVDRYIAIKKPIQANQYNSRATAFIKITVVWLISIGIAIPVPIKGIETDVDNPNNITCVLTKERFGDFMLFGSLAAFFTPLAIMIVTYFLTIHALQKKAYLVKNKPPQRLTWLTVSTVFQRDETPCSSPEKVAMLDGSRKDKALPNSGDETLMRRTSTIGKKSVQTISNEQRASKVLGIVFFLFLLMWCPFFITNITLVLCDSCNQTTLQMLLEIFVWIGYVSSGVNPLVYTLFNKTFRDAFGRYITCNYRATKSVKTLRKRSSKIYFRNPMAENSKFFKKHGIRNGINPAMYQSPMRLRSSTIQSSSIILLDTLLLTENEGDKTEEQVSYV
Method: as §2

CYP2E1 = biological target: T2, CYP2E1 (Homo sapiens, UniProt P05181); test: P450 in vitro clearance, recombinant Supersomes; assay type: in vitro ADME; conditions: 2 μM, hydrochloride salts used; one value printed for CYP2D6 and CYP2E1
T2 construct: purchased BD Biosciences
T2 sequence (P05181 whole entry): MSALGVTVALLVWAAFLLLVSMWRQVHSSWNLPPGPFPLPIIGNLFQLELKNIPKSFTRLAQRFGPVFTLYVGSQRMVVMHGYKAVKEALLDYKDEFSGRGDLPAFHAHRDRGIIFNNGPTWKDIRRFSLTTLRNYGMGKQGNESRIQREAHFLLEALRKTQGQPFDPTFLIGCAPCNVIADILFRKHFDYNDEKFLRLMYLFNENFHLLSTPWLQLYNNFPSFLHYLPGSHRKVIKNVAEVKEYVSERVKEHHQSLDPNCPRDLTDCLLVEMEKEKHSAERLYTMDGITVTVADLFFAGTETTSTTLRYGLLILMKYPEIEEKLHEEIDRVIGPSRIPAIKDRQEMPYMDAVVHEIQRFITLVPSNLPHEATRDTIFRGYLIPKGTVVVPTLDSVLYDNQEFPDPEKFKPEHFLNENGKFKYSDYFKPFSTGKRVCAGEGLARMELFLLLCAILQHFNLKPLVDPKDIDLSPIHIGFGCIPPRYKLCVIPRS
Method: as §1

CYP2D6 = CYP2D6 (Homo sapiens, UniProt P10635); test: P450 in vitro clearance, recombinant Supersomes; assay type: in vitro ADME; conditions: 2 μM, hydrochloride salts used; one value printed for CYP2D6 and CYP2E1
Chain of CYP2D6 (P10635 whole entry): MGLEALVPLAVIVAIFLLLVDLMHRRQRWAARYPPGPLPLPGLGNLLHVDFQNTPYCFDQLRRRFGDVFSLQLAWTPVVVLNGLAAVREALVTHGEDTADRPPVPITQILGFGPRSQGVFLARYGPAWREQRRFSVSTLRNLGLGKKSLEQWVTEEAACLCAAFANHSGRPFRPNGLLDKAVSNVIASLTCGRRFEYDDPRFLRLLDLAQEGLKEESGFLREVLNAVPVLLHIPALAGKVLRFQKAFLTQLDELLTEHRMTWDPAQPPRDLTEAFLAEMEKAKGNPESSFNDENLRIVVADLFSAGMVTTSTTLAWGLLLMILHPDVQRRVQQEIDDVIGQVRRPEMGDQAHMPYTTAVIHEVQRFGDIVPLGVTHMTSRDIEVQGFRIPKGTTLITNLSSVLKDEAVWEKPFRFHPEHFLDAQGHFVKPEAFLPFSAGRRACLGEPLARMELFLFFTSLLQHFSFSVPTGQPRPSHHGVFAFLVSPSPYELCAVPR
Method: as §1

[3] = Seven-day oral dose range rat toxicity study; assay type: in vivo
Method: Male Crl:CD rats (9 wk old, weighing 316.8–349.4 g on d 1; Charles River) were administered 1 oral dose of NDD-825.HCl in water that contained 0.5% (w/v) hydroxypropylmethylcellulose K15M, 0.5% (v/v) benzyl alcohol, and 0.4% (v/v) Tween-80 at 20, 90, or 300 mg/kg at a dose volume of 10 ml/kg for 7 consecutive days (4 animals per group). Blood samples were collected before and at time points during the 24 h that followed for bioanalysis. Animals were monitored for adverse clinical signs and body weight. Terminal blood samples were taken for clinical chemistry, and organs were harvested for microscopic examination (see Supplemental Data for full details). Three additional male rats per group received NDD-825.HCl on d 1 only to collect blood samples for plasma bioanalysis of compound toxicokinetics. NDD-825 was quantifiable in plasma of all animals up to 8 h after dose administration; […]. Systemic exposure to NDD-825 in terms of Cmax increased in approximate proportion with increasing dose, whereas for the same dose increase, AUC0-t increased in a supraproportional manner across the entire dose range. […]. […] Study was carried out by Aptuit (Verona, Italy).

[4] = concentration-response, Cheng-Prusoff

With `NC(=O)c1ccc(OCCNC[C@H](O)COc2ccc3c(c2)OC[C@@H](COCC2CC2)O3)cc1` [NDD-713] the fraction unbound at 4.2 h, 1 µM [1] was 0.67, the “Affinity for the hERG channel” value (hERG potassium channel) was “no affinity for the hERG channel” and the “P450 in vitro clearance CLint, CYP2A6” value (CYP2A6) was 0.02 μl/min/pmol P450. For the same compound, the “β1-AR vs. dopamine transporter selectivity” value (dopamine transporter) was 53 fold, the Ki (dopamine transporter; [4]) was 0.8 µM and the “β1-AR vs. noradrenaline transporter selectivity” value [2] was 185 fold. The Ki [2, 4] was 2.8 µM and the Ki (5-HT2B) was > 10 µM.

In the case of `O=C1NCc2cc(OCCNC[C@H](O)COc3ccc4c(c3)OC[C@@H](COCC3CC3)O4)ccc21` [NDD-825], the fraction unbound at 4.2 h, 1 µM [1] is reported as 0.63, the “Affinity for the hERG channel” value (hERG potassium channel) is reported as “no affinity for the hERG channel” and the “P450 in vitro clearance CLint, CYP2E1” value (CYP2E1) is reported as 0.02 μl/min/pmol P450. The “P450 in vitro clearance CLint, CYP2D6” value (CYP2D6) was 0.02 μl/min/pmol P450, the Tolerability ([3]; 300 mg/kg once daily p.o. for 7 d (highest dose tested)) was “well tolerated” and the Change in triglycerides ([3]; 7-d repeat oral dosing, top dose) was “dose-related increase in triglycerides”. For the same compound, the MTD at 7 d ([3]; male, Crl:CD, in vivo, 7-d repeat oral dosing, read-out: Maximum tolerated dose) was > 300 mg/kg/day, the Tmax ([3]; male, Crl:CD, plasma, oral 20, 90 or 300 mg/kg, read-out: tmax (toxicokinetics)) was 2 to 8 h and the “Increase of AUC0-t for a 15-fold increase in dose” value ([3]; oral, 20 to 300 mg/kg/d) was 31.4 fold. The “Increase of Cmax for a 15-fold increase in dose” value ([3]; oral, 20 to 300 mg/kg/d) was 12.4 fold.
